Measurements as given in US9156801B2, “2-substituted oleanolic acid derivative, method preparing for same, and application thereof” (HANGZHOU BENSHENG PHARMACEUTICAL CO., LTD., priority 2011, dated 2015).
Converted amounts (≈) assume the structure as drawn.

Legend:
RPMI8226 cell line = assay: multiple myeloma cell growth inhibition, MTT; assay type: cell-based; conditions: Homo sapiens, RPMI-8226
Procedure, shortened: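 Viability was measured by MTT after a 72 h compound exposure (37° C, 5% CO2) of RPMI8226 myeloma cells seeded at 6000 per well in 1640 medium with 10% fetal bovine serum. Growth inhibition was expressed relative to untreated cells, taken as 0%.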

NB4 cell line = assay: leukemia cell growth inhibition, MTT; assay type: cell-based; conditions: Homo sapiens, NB-4
Procedure, shortened: (§1)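 Proliferation inhibition was read by MTT after 72 h of compound exposure (37 °C, 5% CO2), untreated wells defining 0%. Each well held 6000 cells in 1640 medium plus 10% fetal bovine serum, with test compounds at varied concentrations.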

Jurkat cell line = assay: leukemia cell growth inhibition, MTT; assay type: cell-based; conditions: Homo sapiens, 72 h
Procedure, shortened: as §1

K562/adr cell line = assay: leukemia cell growth inhibition, MTT; assay type: cell-based; conditions: Homo sapiens, 72 h
Procedure, shortened: as §1

Kasumi-1 cell line = assay: leukemia cell growth inhibition, MTT; assay type: cell-based; conditions: Homo sapiens
Procedure, shortened: as §1

H9 cell line = assay: leukemia cell growth inhibition, MTT; assay type: cell-based; conditions: Homo sapiens
Procedure, shortened: as §1

SK-OV-3 cell line = assay: solid tumor cell growth inhibition, MTT; assay type: cell-based; conditions: Homo sapiens
Procedure, shortened: (§2)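 Compound-treated cultures (72 h, 37° C, 5% CO2, DMEM high glucose with 10% FBS) were compared with untreated wells assigned 0% inhibition, using MTT to gauge relative living cells; seeding was 4000 cells per well, 24 h before treatment.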

U87 MG cell line = assay: solid tumor cell growth inhibition, MTT; assay type: cell-based; conditions: Homo sapiens, U-87 MG, 72 h
Procedure, shortened: as §2

RKO cell line = assay: solid tumor cell growth inhibition, MTT; assay type: cell-based; conditions: Homo sapiens, 72 h
Procedure, shortened: as §2

MGC 803 cell line = assay: solid tumor cell growth inhibition, MTT; assay type: cell-based; conditions: Homo sapiens
Procedure, shortened: as §2

A549 cell line = assay: solid tumor cell growth inhibition, MTT; assay type: cell-based; conditions: Homo sapiens
Procedure, shortened: as §2

PANC-1 cell line = assay: solid tumor cell growth inhibition, MTT; assay type: cell-based; conditions: Homo sapiens
Procedure, shortened: as §2

MG-63 cell line = assay: solid tumor cell growth inhibition, MTT; assay type: cell-based; conditions: Homo sapiens
Procedure, shortened: as §2

Hela cell line = assay: solid tumor cell growth inhibition, MTT; assay type: cell-based; conditions: Homo sapiens, 72 h
Procedure, shortened: as §2

CaES-17 cell line = assay: solid tumor cell growth inhibition, MTT; assay type: cell-based; conditions: Homo sapiens, CaEs17
Procedure, shortened: as §2

Becap37 cell line = assay: solid tumor cell growth inhibition, MTT; assay type: cell-based; conditions: Homo sapiens
Procedure, shortened: as §2

PC-3 cell line = assay: solid tumor cell growth inhibition, MTT; assay type: cell-based; conditions: Homo sapiens
Procedure, shortened: as §2

Hep-2 cell line = assay: solid tumor cell growth inhibition, MTT; assay type: cell-based; conditions: Homo sapiens
Procedure, shortened: as §2

CNE cell line = assay: solid tumor cell growth inhibition, MTT; assay type: cell-based; conditions: Homo sapiens, 72 h
Procedure, shortened: as §2

Hep G2 cell line = assay: solid tumor cell growth inhibition, MTT; assay type: cell-based, human; conditions: Homo sapiens
Procedure, shortened: as §2

[1] = 16 μg/mL compound, read-out: IR (cell proliferation inhibition rate)

In the case of `COC(=O)[C@]12CCC(C)(C)C[C@H]1C1=CC[C@@H]3[C@@]4(C)CC(C(=O)NCCN5CCOCC5)C(=O)C(C)(C)[C@@H]4CC[C@@]3(C)[C@]1(C)CC2` (stereo partly shown) [BS-OA-059], the inhibition at 16 µg/mL (RPMI8226 cell line; RPMI8226, 16 μg/mL compound, 72 h, read-out: IR (cell proliferation inhibition rate)) is reported as 96.6%, the IC50 (RPMI8226 cell line; RPMI8226, 72 h) is reported as 7.18 mg/L (≈ 11.5 µM) and the inhibition at 16 µg/mL (NB4 cell line; NB4, 16 μg/mL compound, 72 h, read-out: IR (cell proliferation inhibition rate)) is reported as 86.7%. For the same compound, the IC50 (NB4 cell line; NB4, 72 h) was 9.74 mg/L (≈ 15.6 µM), the inhibition at 16 µg/mL (Jurkat cell line; [1]) was 23.8% and the IC50 (Jurkat cell line) was > 16 mg/L. It also gave an IC50 (K562/adr cell line; K562/Adr) of 8.87 mg/L (≈ 14.2 µM), an inhibition at 16 µg/mL (K562/adr cell line; K562/adr, 16 μg/mL compound, read-out: IR (cell proliferation inhibition rate)) of 80.5% and an inhibition at 16 µg/mL (Kasumi-1 cell line; Kasumi-1, 16 μg/mL compound, 72 h, read-out: IR (cell proliferation inhibition rate)) of 48.7%. For the same compound, the IC50 (Kasumi-1 cell line; Kasumi-1, 72 h) was 16 mg/L (≈ 25.6 µM), the IC50 (H9 cell line; H9, 72 h) was 12.7 mg/L (≈ 20.4 µM) and the inhibition at 16 µg/mL (H9 cell line; H9, 16 μg/mL compound, 72 h, read-out: IR (cell proliferation inhibition rate)) was 67.7%. For the same compound, the IC50 (SK-OV-3 cell line; SK-OV-3, 72 h) was > 16 mg/L, the inhibition at 16 µg/mL (SK-OV-3 cell line; SK-OV-3, 16 μg/mL compound, 72 h, read-out: IR (cell proliferation inhibition rate)) was 35.2% and the inhibition at 16 µg/mL (U87 MG cell line; [1]) was 30.6%. For the same compound, the IC50 (U87 MG cell line) was > 16 mg/L, the inhibition at 16 µg/mL (RKO cell line; [1]) was 1.8% and the IC50 (RKO cell line) was > 16 mg/L. For the same compound, the inhibition at 16 µg/mL (MGC 803 cell line; MGC 803, 16 μg/mL compound, 72 h, read-out: IR (cell proliferation inhibition rate)) was -7.4%, the IC50 (MGC 803 cell line; MGC 803, 72 h) was > 16 mg/L and the IC50 (A549 cell line; A549, 72 h) was > 16 mg/L. For the same compound, the inhibition at 16 µg/mL (A549 cell line; A549, 16 μg/mL compound, 72 h, read-out: IR (cell proliferation inhibition rate)) was 11.8%, the IC50 (PANC-1 cell line; PANC-1, 72 h) was > 16 mg/L and the inhibition at 16 µg/mL (PANC-1 cell line; PANC-1, 16 μg/mL compound, 72 h, read-out: IR (cell proliferation inhibition rate)) was 10.4%. For the same compound, the IC50 (MG-63 cell line; MG-63, 72 h) was > 16 mg/L, the inhibition at 16 µg/mL (MG-63 cell line; MG-63, 16 μg/mL compound, 72 h, read-out: IR (cell proliferation inhibition rate)) was 27% and the IC50 (Hela cell line; HeLa) was 16 mg/L (≈ 25.6 µM). The inhibition at 16 µg/mL (Hela cell line; Hela, 16 μg/mL compound, read-out: IR (cell proliferation inhibition rate)) was 51.8%, the inhibition at 16 µg/mL (CaES-17 cell line; CaES-17, 16 μg/mL compound, 72 h, read-out: IR (cell proliferation inhibition rate)) was 34% and the IC50 (CaES-17 cell line; CaES-17, 72 h) was > 16 mg/L. For the same compound, the inhibition at 16 µg/mL (Becap37 cell line; Becap37, 16 μg/mL compound, 72 h, read-out: IR (cell proliferation inhibition rate)) was 4.7%, the IC50 (Becap37 cell line; Becap37, 72 h) was > 16 mg/L and the IC50 (PC-3 cell line; PC-3, 72 h) was > 16 mg/L. The inhibition at 16 µg/mL (PC-3 cell line; PC-3, 16 μg/mL compound, 72 h, read-out: IR (cell proliferation inhibition rate)) was 34.1%, the IC50 (Hep-2 cell line; HEp-2, 72 h) was > 16 mg/L and the inhibition at 16 µg/mL (Hep-2 cell line; Hep-2, 16 μg/mL compound, 72 h, read-out: IR (cell proliferation inhibition rate)) was 0%. The inhibition at 16 µg/mL (CNE cell line; [1]) was 20.6%, the IC50 (CNE cell line) was > 16 mg/L and the inhibition at 16 µg/mL (Hep G2 cell line; HepG2, 72 h, Hep G2, 16 μg/mL compound, 72 h, read-out: IR (cell proliferation inhibition rate)) was 0.6%. The IC50 (Hep G2 cell line; HepG2, Hep G2, 72 h) was > 16 mg/L.
